# Source: patent EP3658131B1, “COMPOSITION FOR THE TREATMENT OF BACTERIAL VAGINOSIS” (Farma-Derma S.R.L., priority 2017, dated 2019)
# Columns and labels:
# Assay type in all cases: cell-based
# [1] = test system: Gardnerella vaginalis ATCC 11418; assay: Reduction of microbial load after incubation with the mixtures (Test 2); details: 4 hours at 37°C
# Experimental: (§1) 3 different mixtures of substances were prepared whose composition is described below: − MD(5mg) + AL(90%,11mg) [formula] − DQC(8mg) [formula] − DQC(8mg) + MD(5mg) + AL(90%,11mg) [formula]
# (§2) To evaluate the antibacterial efficacy of the ingredients in the three compositions described above, the pure raw materials directly dissolved in the culture medium were tested. Aliquots of the 3 mixtures were prepared for each of the bacterial strains being evaluated. Each mixture was placed in a receptacle containing a suitable volume of a peptone water solution with pH 5.5 having a concentration of the bacterial strain equal to at least 10^5 CFU/ml.
# (§3) Each container was placed in incubation at 37°C for 4 hours to promote the dissolution and the action of the ingredients. A negative control was prepared for each strain i.e. a solution without the presence of the substances being tested, which is treated in the same experimental conditions as the receptacles containing the mixtures being tested.
# (§4) At the end of the incubation period the contents of each container were neutralised and seeded in a suitable culture medium, the micro-organisms that had grown were counted. Each seeding was performed in triplicate.
# [2] = test system: Prevotella loescheii ATCC 15930; assay: as above; details: 4 hours at 37°C
# Experimental: as §1, §2, §3, §4
# [3] = test system: Escherichia coli ATCC 8739; assay: as above; details: 4 hours at 37°C
# Experimental: as §1, §2, §3, §4
# [4] = test system: Staphylococcus aureus ATCC 6538; assay: as above; details: 4 hours at 37°C
# Experimental: as §1, §2, §3, §4
# [5] = test system: Lactobacillus Acidophilus ATCCC 4356; assay: Survival/growth of lactobacilli after incubation with the mixtures (Test 2); details: 4 hours at 37°C
# Experimental: as §1, §2, §3, §4
# [6] = test system: Gardnerella vaginalis ATCC 11418 + Lactobacillus Acidophilus ATCCC 4356; assay: Survival/growth of lactobacilli in metabolic competition with a pathogenic strain (Test 2); details: for Reduction in microbial load with respect to the negative control: values only refer to the lactobacilli, negative value = growth
# Experimental: The selectivity of the compostion is verified by evaluating the survival ability of the Lactobacillus Acidophilus in the presence and absence of another bacterial strain in metabolic competition.
# as §1, §2, §3, §4
# [7] = peptone water pH 5.5, at least 10^5 CFU/ml, mean of 3 replicates
smiles,measurement,setting,value
"Cc1cc(N)c2ccccc2[n+]1CCCCCCCCCC[n+]1c(C)cc(N)c2ccccc21 [DQC, dequalinium chloride]",Reduction in microbial load with respect to the negative control,[1]; peptone water pH 5.5,74.31%
same,Microbial load,[1]; [7],"4,205 CFU/ml"
same,Reduction in microbial load with respect to the negative control,[2]; peptone water pH 5.5,90.56%
same,Microbial load,[2]; [7],"3,367 CFU/ml"
same,Reduction in microbial load with respect to the negative control,[3]; peptone water pH 5.5,50.60%
same,Microbial load,[3]; [7],"1,037,400 CFU/ml"
same,Reduction in microbial load with respect to the negative control,[4]; peptone water pH 5.5,60.00%
same,Microbial load,[4]; [7],"14,267 CFU/ml"
same,Microbial load,[5]; [7],"5,267 CFU/ml"
same,Reduction in microbial load with respect to the negative control,"[5]; peptone water pH 5.5, negative value = growth",96.18%
same,Microbial load,"[6]; values only refer to the lactobacilli (selective media), 4 hours at 37°C, pH 5.5, mean of 3 replicates","1,400 CFU/ml"
same,Reduction in microbial load with respect to the negative control,[6],60.00%
same,Reduction in microbial load with respect to the negative control,[6]; listed as dequalinium,60.00%
